We go through one compound from ChEMBL document CHEMBL5380790 (J Med Chem, 2023).

A short description of data set [1]: Volume of distribution at steady state in Beagle dog at 0.2 mg/kg, iv and measured upto 24 hrs. The data set is classed as ADME, organism-based, Canis lupus familiaris. The conditions noted are these: in vivo, read-out: Vdss.
In data set [2] the target is T1, Receptor-type tyrosine-protein kinase FLT3 (Homo sapiens, UniProt P36888).
T1 sequence (P36888 whole entry): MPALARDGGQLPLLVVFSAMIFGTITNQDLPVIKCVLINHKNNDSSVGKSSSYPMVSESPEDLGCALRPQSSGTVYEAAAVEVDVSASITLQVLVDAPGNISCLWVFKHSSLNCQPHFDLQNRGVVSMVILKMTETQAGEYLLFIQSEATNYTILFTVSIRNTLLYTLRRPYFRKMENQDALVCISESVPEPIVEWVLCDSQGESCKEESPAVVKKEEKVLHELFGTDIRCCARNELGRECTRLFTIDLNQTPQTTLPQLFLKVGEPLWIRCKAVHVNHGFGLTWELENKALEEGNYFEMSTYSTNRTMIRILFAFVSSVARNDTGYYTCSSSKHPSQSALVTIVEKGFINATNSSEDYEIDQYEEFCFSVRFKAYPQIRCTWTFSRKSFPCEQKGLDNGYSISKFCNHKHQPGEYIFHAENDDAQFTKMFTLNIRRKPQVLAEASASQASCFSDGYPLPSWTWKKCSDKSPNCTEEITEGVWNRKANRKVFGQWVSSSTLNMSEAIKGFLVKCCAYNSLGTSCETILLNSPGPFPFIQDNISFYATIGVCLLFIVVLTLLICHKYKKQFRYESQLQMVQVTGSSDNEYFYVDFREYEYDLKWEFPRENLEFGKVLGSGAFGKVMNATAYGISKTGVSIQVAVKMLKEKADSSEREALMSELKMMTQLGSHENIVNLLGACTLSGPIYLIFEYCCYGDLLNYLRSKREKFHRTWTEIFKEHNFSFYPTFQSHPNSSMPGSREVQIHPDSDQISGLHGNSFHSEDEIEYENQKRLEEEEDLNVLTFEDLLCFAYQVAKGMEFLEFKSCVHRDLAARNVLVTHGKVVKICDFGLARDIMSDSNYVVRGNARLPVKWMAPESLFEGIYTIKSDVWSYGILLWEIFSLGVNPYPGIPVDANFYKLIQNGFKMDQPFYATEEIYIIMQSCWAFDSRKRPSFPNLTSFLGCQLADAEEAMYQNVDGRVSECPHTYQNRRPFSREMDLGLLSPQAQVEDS
Put plainly: Inhibition of FLT3 (unknown origin) using 33P-ATP as substrate incubated for 120 mins by radiometric kinase assay.

Data set [3] can be described thus: Half life in CD-1 mouse at 0.2 mg/kg, iv and measured upto 24 hrs. The conditions noted are these: in vivo. The data set is classed as ADME, organism-based.
In data set [4] the target is hERG (KCNH2) potassium channel (Homo sapiens, UniProt Q12809). Put plainly: Inhibition of human ERG potassium channel transfected in HEK293 cells at holding potential -80 mV at 10 uM and measured for 5 mins by whole cell patch clamp assay. The format is toxicity, cell-based. The conditions noted are these: HEK293 cells transfected with hERG. On the technique in general: In patch-clamp work, channel activity is measured electrically.
Sequence of hERG (KCNH2) potassium channel (Q12809 whole entry): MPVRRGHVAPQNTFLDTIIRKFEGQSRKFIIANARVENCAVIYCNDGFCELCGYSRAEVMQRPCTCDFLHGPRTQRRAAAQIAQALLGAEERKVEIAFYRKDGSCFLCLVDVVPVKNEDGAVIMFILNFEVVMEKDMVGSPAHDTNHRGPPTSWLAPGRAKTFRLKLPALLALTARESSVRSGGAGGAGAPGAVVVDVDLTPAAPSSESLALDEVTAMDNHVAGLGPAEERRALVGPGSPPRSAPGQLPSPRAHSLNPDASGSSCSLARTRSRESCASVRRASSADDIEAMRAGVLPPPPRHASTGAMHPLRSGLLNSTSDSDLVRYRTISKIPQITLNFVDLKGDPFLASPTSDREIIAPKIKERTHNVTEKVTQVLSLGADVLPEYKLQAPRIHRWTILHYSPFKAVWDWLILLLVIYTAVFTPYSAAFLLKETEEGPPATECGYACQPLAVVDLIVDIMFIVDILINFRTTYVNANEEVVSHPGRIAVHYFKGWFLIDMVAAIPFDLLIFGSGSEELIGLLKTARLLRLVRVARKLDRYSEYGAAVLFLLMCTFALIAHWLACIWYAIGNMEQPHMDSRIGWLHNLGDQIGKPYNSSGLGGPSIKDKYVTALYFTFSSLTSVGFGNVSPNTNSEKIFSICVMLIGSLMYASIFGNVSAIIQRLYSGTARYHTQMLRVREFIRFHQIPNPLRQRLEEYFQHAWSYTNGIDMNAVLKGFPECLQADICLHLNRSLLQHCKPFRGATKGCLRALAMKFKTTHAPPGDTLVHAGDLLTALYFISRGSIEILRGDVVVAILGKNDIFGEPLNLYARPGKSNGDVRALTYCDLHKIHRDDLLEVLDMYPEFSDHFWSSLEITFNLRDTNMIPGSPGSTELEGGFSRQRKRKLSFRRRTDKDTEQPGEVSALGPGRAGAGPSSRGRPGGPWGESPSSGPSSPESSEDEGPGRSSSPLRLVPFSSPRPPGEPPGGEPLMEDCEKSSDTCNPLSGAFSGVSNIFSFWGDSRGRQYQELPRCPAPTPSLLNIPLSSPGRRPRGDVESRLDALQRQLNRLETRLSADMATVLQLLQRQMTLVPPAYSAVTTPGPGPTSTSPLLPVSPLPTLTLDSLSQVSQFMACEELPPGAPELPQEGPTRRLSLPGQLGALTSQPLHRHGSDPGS

Data set [5] relates to GIST-430/654. The format is functional, organism-based. The conditions noted are these: Homo sapiens, dose 35.0 mg/kg, route po, time 30.0 day.
The target of data set [6] is Mast/stem cell growth factor receptor Kit (Homo sapiens, UniProt P10721). The data set can be described thus: Inhibition of wild type KIT (unknown origin) using 33P-ATP as substrate incubated for 120 mins by radiometric kinase assay.
Sequence of Mast/stem cell growth factor receptor Kit (P10721 whole entry): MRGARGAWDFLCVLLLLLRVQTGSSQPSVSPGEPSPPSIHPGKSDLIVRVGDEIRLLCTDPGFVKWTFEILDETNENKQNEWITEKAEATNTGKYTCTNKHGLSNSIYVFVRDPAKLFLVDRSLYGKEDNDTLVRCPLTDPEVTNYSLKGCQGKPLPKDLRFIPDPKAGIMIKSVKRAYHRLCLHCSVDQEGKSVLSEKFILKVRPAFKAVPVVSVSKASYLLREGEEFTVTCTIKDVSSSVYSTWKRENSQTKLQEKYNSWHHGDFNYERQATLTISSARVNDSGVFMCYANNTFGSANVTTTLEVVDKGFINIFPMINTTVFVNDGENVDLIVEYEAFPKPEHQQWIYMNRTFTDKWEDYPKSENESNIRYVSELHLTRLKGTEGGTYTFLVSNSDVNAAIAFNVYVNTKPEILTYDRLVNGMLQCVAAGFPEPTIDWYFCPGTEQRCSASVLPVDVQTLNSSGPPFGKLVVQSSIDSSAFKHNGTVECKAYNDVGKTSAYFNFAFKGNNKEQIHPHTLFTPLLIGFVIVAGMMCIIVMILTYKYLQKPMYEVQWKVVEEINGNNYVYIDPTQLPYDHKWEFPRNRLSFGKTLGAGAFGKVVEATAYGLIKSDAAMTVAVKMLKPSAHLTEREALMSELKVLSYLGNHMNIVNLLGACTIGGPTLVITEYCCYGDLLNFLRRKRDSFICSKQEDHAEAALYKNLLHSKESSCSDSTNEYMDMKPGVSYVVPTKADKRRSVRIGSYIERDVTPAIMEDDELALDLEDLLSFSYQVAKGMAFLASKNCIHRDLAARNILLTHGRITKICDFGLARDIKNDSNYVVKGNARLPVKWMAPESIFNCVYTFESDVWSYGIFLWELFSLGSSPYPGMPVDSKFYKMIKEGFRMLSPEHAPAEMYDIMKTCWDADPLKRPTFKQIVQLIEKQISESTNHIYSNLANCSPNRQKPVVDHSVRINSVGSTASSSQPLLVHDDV
The nature of data set [7]: Half life in Cynomolgus monkey at 0.2 mg/kg, iv and measured upto 24 hrs. The data set is classed as ADME, organism-based, Macaca fascicularis. The conditions noted are these: in vivo.

SMILES strings stand for the structures. pIC50: −log10 of the molar value. Activity calls are given as the source filed them. No cut-off for these calls is given here.

By pIC50 is commonly meant −log10 of the IC50, conventionally taken in molar units. As usually defined, the half-life is the time in which the quantity being followed falls by half. A word on the inhibition: it is the change of the read-out against control, counted positive when it falls. As to `Cn1cc(-c2ccc(CNc3cc(-c4cnc5cc(OCCCN6CCCC6)ccn45)ncn3)cc2)cn1` [IDRX-42], the Vd in data set [1] came to 34.6 L/kg. Besides, the pIC50 in data set [2] is 6.85; in data set [6], 7.36. Besides, the half-life is 6.9 h in data set [3] and 4.4 h in data set [7]. In addition, in data set [4], the inhibition at 5 min, 10 µM is -86%. The result in data set [5] was Active.
